In brackets after ≈: the same amount, converted by molar mass. Activity calls are given as the source filed them. The calls are words filed in the database; no cut-off is given here.
Experiments:
Salmonella typhimurium [1] = assay: Antibacterial activity against Salmonella enterica subsp. enterica serovar Typhimurium MTCC 98 after 24 hr by agar well diffusion method; type: functional; conditions: MTCC 98, 24 h
Escherichia coli [2] = assay: Antibacterial activity against Escherichia coli MTCC 443 after 24 hr by agar well diffusion method; type: functional; conditions: MTCC 443, 24 h
Bacillus subtilis [3] = assay: Antibacterial activity against Bacillus subtilis MTCC 441 after 24 hr by agar well diffusion method; type: functional; conditions: MTCC 441, 24 h
Staphylococcus aureus [4] = assay: Antibacterial activity against Staphylococcus aureus MTCC 96 after 24 hr by agar well diffusion method; type: functional; conditions: MTCC 96, 24 h
THP-1 [5] = assay: Anti-inflammatory activity in Homo sapiens (human) THP1 cells assessed as inhibition of LPS-induced IL6 production at 1 uM incubated for 30 min prior to LPS-challenge measured after 24 hr by ELISA relative to control; type: functional
THP-1 [6] = assay: Anti-inflammatory activity in Homo sapiens (human) THP1 cells assessed as inhibition of LPS-induced TNFalpha production at 1 uM incubated for 30 min prior to LPS-challenge measured after 24 hr by ELISA relative to control; type: functional
Aspergillus flavus [7] = assay: Antifungal activity against Aspergillus flavus MTCC 277 after 2 to 3 days by agar well diffusion method; type: functional
Fusarium solani [8] = assay: Antifungal activity against Fusarium solani MTCC 350 after 2 to 3 days by agar well diffusion method; type: functional
Aspergillus niger [9] = assay: Antifungal activity against Aspergillus niger MTCC 281 after 2 to 3 days by agar well diffusion method; type: functional
Candida albicans [10] = assay: Antifungal activity against Candida albicans MTCC 227 after 2 to 3 days by agar well diffusion method; type: functional
THP-1 [11] = assay: Anti-inflammatory activity in Homo sapiens (human) THP1 cells assessed as inhibition of LPS-induced IL6 production at 10 uM incubated for 30 min prior to LPS-challenge measured after 24 hr by ELISA relative to control; type: functional
THP-1 [12] = assay: Anti-inflammatory activity in Homo sapiens (human) THP1 cells assessed as inhibition of LPS-induced TNFalpha production at 10 uM incubated for 30 min prior to LPS-challenge measured after 24 hr by ELISA relative to control; type: functional
Aspergillus flavus [13] = assay: Antifungal activity against Aspergillus flavus MTCC 277 up to 200 ug/ml after 2 to 3 days by agar well diffusion method; type: functional, organism-based
Fusarium solani [14] = assay: Antifungal activity against Fusarium solani MTCC 350 up to 200 ug/ml after 2 to 3 days by agar well diffusion method; type: functional, organism-based
Aspergillus niger [15] = assay: Antifungal activity against Aspergillus niger MTCC 281 up to 200 ug/ml after 2 to 3 days by agar well diffusion method; type: functional, organism-based
Salmonella typhimurium [16] = assay: Antibacterial activity against Salmonella enterica subsp. enterica serovar Typhimurium MTCC 98 up to 200 ug/ml after 24 hr by agar well diffusion method; type: functional, organism-based
Escherichia coli [17] = assay: Antibacterial activity against Escherichia coli MTCC 443 up to 200 ug/ml after 24 hr by agar well diffusion method; type: functional, organism-based
Bacillus subtilis [18] = assay: Antibacterial activity against Bacillus subtilis MTCC 441 up to 200 ug/ml after 24 hr by agar well diffusion method; type: functional, organism-based
Staphylococcus aureus [19] = assay: Antibacterial activity against Staphylococcus aureus MTCC 96 up to 200 ug/ml after 24 hr by agar well diffusion method; type: functional, organism-based
Candida albicans [20] = assay: Antifungal activity against Candida albicans MTCC 227 up to 200 ug/ml after 2 to 3 days by agar well diffusion method; type: functional, organism-based
Aspergillus flavus [21] = assay: Ratio of miconazole MIC to compound MIC for Aspergillus flavus MTCC 277; type: functional
Candida albicans [22] = assay: Ratio of miconazole MIC to compound MIC for Candida albicans MTCC 227; type: functional

| Structure (SMILES) | MIC (Salmonella typhimurium [1]) [µg/mL] | MIC (Escherichia coli [2]) [µg/mL] | MIC (Bacillus subtilis [3]) [µg/mL] | MIC (Staphylococcus aureus [4]) [µg/mL] | MIC (Aspergillus flavus [7]) [µg/mL] | MIC (Fusarium solani [8]) [µg/mL] | MIC (Aspergillus niger [9]) [µg/mL] | MIC (Candida albicans [10]) [µg/mL] | inhibition at 10 µM (THP-1 [11]) [%] | inhibition at 10 µM (THP-1 [12]) [%] | Activity (Salmonella typhimurium [16]) | Activity (Escherichia coli [17]) | Activity (Bacillus subtilis [18]) | also measured |
| --- | --- | --- | --- | --- | --- | --- | --- | --- | --- | --- | --- | --- | --- | --- |
| O=C(O)c1cn(C2CC2)c2cc(N3CCNCC3)c(F)cc2c1=O [CIPROFLOXACIN] | 20 (≈ 60.4 µM) | 15 (≈ 45.3 µM) | 15 (≈ 45.3 µM) | 20 (≈ 60.4 µM) |  |  |  |  |  |  |  |  |  |  |
| C[C@@H]1C[C@H]2[C@@H]3CCC4=CC(=O)C=C[C@]4(C)[C@@]3(F)[C@@H](O)C[C@]2(C)[C@@]1(O)C(=O)CO [DEXAMETHASONE] |  |  |  |  |  |  |  |  |  |  |  |  |  | inhibition at 1 µM (THP-1 [5]): 86%; inhibition at 1 µM (THP-1 [6]): 72% |
| O=c1cc[nH]c2c(F)cc(F)cc12 [6,8-DIFLUOROQUINOLIN-4(1H)-ONE] |  |  |  |  |  |  |  | 90 (≈ 497 µM) | 0 | 0 | inactive | inactive | inactive | Activity (Aspergillus flavus [13]): inactive; Activity (Fusarium solani [14]): inactive; Activity (Aspergillus niger [15]): inactive; Activity (Staphylococcus aureus [19]): inactive |
| NCCNc1ccnc2c(F)cc(F)cc12 |  |  |  |  |  |  |  |  | 0 | 0 | inactive | inactive | inactive | Activity (Aspergillus flavus [13]): inactive; Activity (Fusarium solani [14]): inactive; Activity (Aspergillus niger [15]): inactive; Activity (Candida albicans [20]): inactive; Activity (Staphylococcus aureus [19]): inactive |
| Cc1ccc(NC(=O)NCCNc2ccnc3c(F)cc(F)cc23)cc1C | 35 (≈ 94.5 µM) | 40 (≈ 108 µM) | 30 (≈ 81 µM) | 40 (≈ 108 µM) | 30 (≈ 81 µM) | 20 (≈ 54 µM) | 35 (≈ 94.5 µM) | 25 (≈ 67.5 µM) | 16 | 11 |  |  |  |  |
| CC(C)c1ccc(NC(=O)NCCNc2ccnc3c(F)cc(F)cc23)cc1 | 30 (≈ 78 µM) | 40 (≈ 104 µM) | 35 (≈ 91 µM) | 40 (≈ 104 µM) | 40 (≈ 104 µM) | 50 (≈ 130 µM) | 35 (≈ 91 µM) | 45 (≈ 117 µM) | 82 | 68 |  |  |  |  |
| O=C(NCCNc1ccnc2c(F)cc(F)cc12)Nc1ccc(OC(F)(F)F)cc1 |  |  |  | 90 (≈ 211 µM) |  |  |  | 90 (≈ 211 µM) | 28 | 16 | inactive | inactive | inactive | Activity (Aspergillus flavus [13]): inactive; Activity (Fusarium solani [14]): inactive; Activity (Aspergillus niger [15]): inactive |
| O=C(NCCNc1ccnc2c(F)cc(F)cc12)Nc1ccccc1F | 20 (≈ 55.5 µM) | 15 (≈ 41.6 µM) | 20 (≈ 55.5 µM) | 20 (≈ 55.5 µM) | 15 (≈ 41.6 µM) | 20 (≈ 55.5 µM) | 20 (≈ 55.5 µM) | 15 (≈ 41.6 µM) | 18 | 11 |  |  |  | Ratio (Aspergillus flavus [21]): 1.3; Ratio (Candida albicans [22]): 1.3 |

Further lines, with some results ahead:

| MIC (Salmonella typhimurium [1]) [µg/mL] | MIC (Escherichia coli [2]) [µg/mL] | MIC (Bacillus subtilis [3]) [µg/mL] | MIC (Staphylococcus aureus [4]) [µg/mL] | MIC (Aspergillus flavus [7]) [µg/mL] | MIC (Fusarium solani [8]) [µg/mL] | MIC (Aspergillus niger [9]) [µg/mL] | MIC (Candida albicans [10]) [µg/mL] | Structure (SMILES) | inhibition at 10 µM (THP-1 [11]) [%] | inhibition at 10 µM (THP-1 [12]) [%] | Activity (Salmonella typhimurium [16]) | Activity (Escherichia coli [17]) | Activity (Bacillus subtilis [18]) | also measured |
| --- | --- | --- | --- | --- | --- | --- | --- | --- | --- | --- | --- | --- | --- | --- |
| 30 (≈ 80.1 µM) | 25 (≈ 66.8 µM) | 20 (≈ 53.4 µM) | 25 (≈ 66.8 µM) | 20 (≈ 53.4 µM) | 20 (≈ 53.4 µM) | 30 (≈ 80.1 µM) | 25 (≈ 66.8 µM) | Cc1ccc(F)cc1NC(=O)NCCNc1ccnc2c(F)cc(F)cc12 | 40 | 28 |  |  |  |  |
| 90 (≈ 219 µM) | 90 (≈ 219 µM) | 90 (≈ 219 µM) | 75 (≈ 183 µM) | 90 (≈ 219 µM) | 90 (≈ 219 µM) |  | 90 (≈ 219 µM) | O=C(NCCNc1ccnc2c(F)cc(F)cc12)Nc1ccc(C(F)(F)F)cc1 | 35 | 23 |  |  |  | Activity (Aspergillus niger [15]): inactive |
|  |  | 90 (≈ 228 µM) | 90 (≈ 228 µM) | 30 (≈ 76 µM) | 60 (≈ 152 µM) | 75 (≈ 190 µM) | 40 (≈ 101 µM) | O=C(NCCNc1ccnc2c(F)cc(F)cc12)Nc1cccc(Cl)c1F | 27 | 16 | inactive |  |  |  |
|  |  |  |  | 80 (≈ 188 µM) | 90 (≈ 211 µM) | 80 (≈ 188 µM) | 80 (≈ 188 µM) | O=C(NCCNc1ccnc2c(F)cc(F)cc12)Nc1ccccc1OC(F)(F)F | 96 | 78 | inactive | inactive | inactive | Activity (Staphylococcus aureus [19]): inactive |
| 15 (≈ 33.7 µM) | 20 (≈ 45 µM) | 25 (≈ 56.2 µM) | 25 (≈ 56.2 µM) | 20 (≈ 45 µM) | 20 (≈ 45 µM) | 15 (≈ 33.7 µM) | 20 (≈ 45 µM) | O=C(NCCNc1ccnc2c(F)cc(F)cc12)Nc1cc(C(F)(F)F)ccc1Cl | 80 | 61 |  |  |  |  |
|  |  |  |  | 20 (≈ 48.1 µM) | 15 (≈ 36 µM) | 15 (≈ 36 µM) | 20 (≈ 48.1 µM) | Clc1ccc(COC(Cn2ccnc2)c2ccc(Cl)cc2Cl)c(Cl)c1 (stereo unspecified) [MICONAZOLE] |  |  |  |  |  |  |
|  |  |  |  | 90 (≈ 451 µM) |  | 90 (≈ 451 µM) | 90 (≈ 451 µM) | Fc1cc(F)c2nccc(Cl)c2c1 [4-CHLORO-6,8-DIFLUOROQUINOLINE] | 0 | 0 | inactive | inactive | inactive | Activity (Fusarium solani [14]): inactive; Activity (Staphylococcus aureus [19]): inactive |
| 15 (≈ 36.6 µM) | 10 (≈ 24.4 µM) | 10 (≈ 24.4 µM) | 15 (≈ 36.6 µM) | 25 (≈ 60.9 µM) | 20 (≈ 48.7 µM) | 10 (≈ 24.4 µM) | 15 (≈ 36.6 µM) | O=C(NCCNc1ccnc2c(F)cc(F)cc12)Nc1ccccc1C(F)(F)F | 90 | 71 |  |  |  |  |

From ChEMBL document CHEMBL3046943, “Synthesis, anti-inflammatory and antimicrobial evaluation of novel N1-(quinolin-4yl)ethane-1,2-diamine phenyl urea derivatives” (2013)
